Results: patent US20260355196A1, “INHIBITORS AND DEGRADERS OF PIP4K PROTEIN” (Larkspur Biosciences, Inc., priority 2023, published 2026)

Biological target: T1, PIP4K2C (Homo sapiens, UniProt Q8TBX8)
T1 sequence (Q8TBX8 1-421): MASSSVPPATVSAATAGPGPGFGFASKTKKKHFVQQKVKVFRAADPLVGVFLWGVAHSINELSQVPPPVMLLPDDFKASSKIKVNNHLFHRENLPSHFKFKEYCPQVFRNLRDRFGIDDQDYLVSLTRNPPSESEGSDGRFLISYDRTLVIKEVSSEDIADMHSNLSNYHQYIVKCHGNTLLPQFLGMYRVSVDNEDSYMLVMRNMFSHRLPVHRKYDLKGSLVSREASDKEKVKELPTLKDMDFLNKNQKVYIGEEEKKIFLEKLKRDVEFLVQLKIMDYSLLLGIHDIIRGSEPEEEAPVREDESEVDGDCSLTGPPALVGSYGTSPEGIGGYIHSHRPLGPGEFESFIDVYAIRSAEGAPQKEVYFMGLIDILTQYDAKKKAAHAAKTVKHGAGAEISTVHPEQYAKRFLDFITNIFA
Test: Enzyme Binding Assay (KINOMEscan): active site-directed competition binding to an immobilized ligand
Set-up: purchased Eurofins DiscoverX, San Diego, CA 87-0007-1094
Settings: 11-point dose response, duplicate, top concentration 5 micromolar; read-out: Pip4k2c Kd: IC50
Outline: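 Active site-directed competition binding against an immobilized ligand. 11-point dose-response in duplicate, top concentration 5 micromolar; IC50 from a Hill equation fitted by the Levenberg-Marquardt algorithm.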

SMILES | IC50
CC(=O)N1CCC(Nc2ncc(F)c(-c3ccnc(N4CCOCC4=O)c3)n2)CC1 [Compound 628, 4-(4-(2-((1-acetylpiperidin-4-yl)amino)-5-fluoropyrimidin-4-yl)pyridin-2-yl)morpholin-3-one] | < 0.5 µM
CC(=O)N1CCC(Nc2ncc(F)c(-c3cccc(N4CCOCC4=O)n3)n2)CC1 [Compound 630, 4-(6-(2-((1-acetylpiperidin-4-yl)amino)-5-fluoropyrimidin-4-yl)pyridin-2-yl)morpholin-3-one] | < 0.5 µM
CC(=O)N[C@H]1CC[C@H](Nc2ncc(F)c(-c3cccc(C4CCC(=O)NC4)c3)n2)CC1 (stereo partly drawn) [Compound 631, N-(trans-4-((5-fluoro-4-(3-(6-oxopiperidin-3-yl)phenyl)pyrimidin-2-yl)amino)cyclohexyl)acetamide] | < 0.5 µM
